Results as given in patent US20220251152A1, “COMPOSITIONS AND METHODS FOR SELECTIVE PROTEIN DEGRADATION” (Novartis AG, priority 2019, published 2022).
Entries after “also recorded” stand apart in the source; their conditions may differ. Where a SMILES comes first, the peptide text is derived from it. The star is where a group is joined. Cbz = O=C(OCc1ccccc1)*

Assays:
[1] = tested on: IKZF3 136-180 and 236-249-tagged NanoLuciferase; conditions: 10 μM MG132 one-hour pre-treatment, then 100 μM lenalidomide
Source text: Samples were pelleted, lysed, run on a protein gel, transferred to a membrane, probed with antibody and developed with film.

[2] = tested on: HilD-tagged CAR19 or FurON-CAR19 (NFAT luciferase reporter); assay: JNL NFAT luciferase reporter assay, lenalidomide dose-response at three treatment time points; format: cell-based, human
Experimental: This study used the JNL cell line described above, which is a Jurkat cell line modified with an NFAT luciferase reporter. Co-culturing of CAR19-expressing JNL cells and CD19-expressing B cells activates the NFAT signaling, leading to luciferase expression.
For target cell co-culture, K562 cells or CD19-expressing K562 cells were added to each well containing JNL cells and cultured on a GNF Systems Ultra-high throughput screening system in a 37° C. and 5% CO2 incubator.

[3] = target: T1, IKZF3 136-180 and 236-249-tagged NanoLuciferase (Homo sapiens, UniProt Q96SW2+Q9UKT9, DEL181-196/S197T); format: cell-based; conditions: 1-hour pre-treatment (10 μM MG132; 128 or 12.8 ng/mL cyclohexamide)
T1 construct: expressed in transfected cells; host or cells: HEK293T
Experimental: DMSO was included as a vehicle control. Luminescence was measured by reading each 384-well plate on a ViewLux® with 1-second and 5-second exposures. The data was imported into Spotfire® and visualizations were made by doing a NC3 normalization according to the following formula: 100*([Luminescence]/[DMSO]).

[4] = target: IKZF3 136-180 and 236-249-tagged CD19 (Homo sapiens, UniProt P15391); conditions: 10 μM MG132 pre-treatment, 10 μM lenalidomide
Experimental: In particular, flow cytometry analysis was conducted to determine whether there was a difference between the total amount of target protein degraded and the total amount of target protein expressed on the cell surface.
CD19 was stained with anti-human CD19 antibody (BD Pharmingen 555413).

[5] = tested on: IKZF3 degron-tagged melanogenesis associated transcription factor (MITF); assay: Western blot of IKZF3-tagged MITF in HEK293T cells; format: cell-based, human; conditions: for degradation of tagged MITF mediated by IMiD: 10 μM compound for 24 hours, IKZF3 136-180 and 236-249- and lysine free-tagged MITF; for ability of the tag to mediate lenalidomide-dependent degradation of MITF: HEK293T, Western blot
Experimental: IKZF3-based degradation tags were evaluated for their ability to facilitate the degradation of melanogenesis associated transcription factor (MITF) or avian myelocytomatosis viral oncogene (MYC) homolog by Western blot. In addition to the IKZF3-based degradation tags, MITF and MYC were also fused to a FLAG tag to facilitate their detection using an anti-FLAG antibody.
DMSO was used as vehicle control.

HilD-Tau (wild type) = target: T2, HilD-Tau (wild type) (Homo sapiens, UniProt P10636+Q96SW2); assay: Quantification of HilD-Tau degradation by Western analysis in HEK293T cells; format: cell-based; conditions: 1 μM MLN4924 co-treatment including 1 hour pretreatment
T2 construct: expressed in transfected cells; host or cells: HEK293T
Experimental: One day prior to transfection, HEK293T cells were plated at a density of 150,000 per well in a 24 well plate. […] Cells were incubated overnight. […] Plates were incubated on ice with occasional shaking for 15 minutes. Lysate was then cleared by centrifugation at 15000 g, 4° C. for 15 minutes. LDS buffer and reducing agent were added to the cleared lysate and then samples were heated at 95° C. for 8 minutes. Samples were run on a 10% bis-tris gel at 150V for 70 minutes. Blots were transferred using the Biorad turboblot (Mixed molecular weight setting). Blots were probed with DAKO Tau (total tau) (Dako #A0024), actin (Cell signaling technologies #3700S), and AT8 (phospho-Tau) (Thermo Fisher #MN1020).

[6] = tested on: NanoLuciferase fused to various IKZF3-based degradation tags; assay: Western blot of variant IKZF3-based degradation tags fused to NanoLuciferase in HEK293T cells; format: cell-based, human; conditions: tag fused to N-terminus of NanoLuciferase
Experimental: Additionally, the IKZF3-based degradation tags were modified using the following strategies:
(1) deleting N-terminal and/or C-terminal amino acid residues;
Protein degradation was measured using western blot as described in Example 2.

[7] = tested on: CAR19 fused to HilD tag and/or FurON; assay: Western blot of CAR19 fused to HilD tag and/or FurON in JNL cells; format: cell-based, human; conditions: 10 μM lenalidomide, 24 hours; FurON constructs with 1 μM bazedoxifene
Experimental: Viruses were prepared from maxi preps and used to transduce JNL cells. Either 275 μL of viral supernatant or 700 μL of viral supernatant was used for transduction. JNL cells are Jurkat cells engineered with a luciferase gene under control of the NFAT promoter.
Briefly, cells were diluted to 0.5×10^6 in 3 mL total in 6 well dishes. […] Bazedoxifene was added at a final concentration of 1 μM to every well that contained a cell line expressing a fusion comprising FurON. […] Cells were incubated at 37° C. and 5% CO2 overnight.
Lysates were centrifuged, supernatant transferred to new tubes and protein quantities read by Lowry Assay (BioRad 5000111). Each sample was normalized to 30 μg total protein in a 20 μL volume with 4× sample buffer (Thermo Scientific NP0007) and 10× reducing agent (Thermo Scientific NP0009). Samples were subjected to Western blot analysis using a mouse anti-V5 antibody (Thermo Scientific MA5-15253) at 1:1000 dilution, a mouse anti-actin antibody (Sigma Aldrich A5441) at 1:10000 dilution, and/or a mouse anti-CD3z antibody (BD 551034) at 1:1000 dilution.
Cells were harvested and subjected to Western blot as described above using a mouse anti-actin antibody (Sigma Aldrich A5441) at 1:10000 dilution or a mouse anti-CD3zeta antibody (BD 551034) at 1:1000 dilution.

CC(C)C[C@@H](C=O)NC(=O)[C@H](CC(C)C)NC(=O)[C@H](CC(C)C)NC(=O)OCc1ccccc1 [MG132] (Cbz-Leu-Leu-Leu-aldehyde)
effect of MG132 on lenalidomide-dependent degradation [1]: not observed; also recorded: blocked | rescue by MG132 of lenalidomide-induced reduction of reporter signal ([2]; HilD-tagged CAR19 or lysine-free-HilD-tagged CAR19 (constructs 769, 770)): partially rescued | rescue by MG132 of lenalidomide-induced reduction of reporter activation ([2]; construct 767, MG132 5 hours prior to target cells): mostly rescued | effect of pre-treatment on lenalidomide-dependent degradation of NanoLuciferase [3]: blocked | effect of MG132 on lenalidomide-induced reduction of surface CD19 [4]: partially blocked | effect of MG132 on lenalidomide-dependent degradation of tagged MITF ([5]; MG132 treatment): blocked

NS(=O)(=O)OC[C@@H]1C[C@@H](n2ccc3c(N[C@H]4CCc5ccccc54)ncnc32)C[C@@H]1O [MLN4924]
effect of MLN4924 on lenalidomide-induced degradation of Tau (HilD-Tau (wild type)): sensitive; also recorded: prevented degradation of Tau

C[C@@H]1C[C@@H]([C@H](O)CC2CC(=O)NC(=O)C2)C(=O)[C@@H](C)C1 [cyclohexamide]
effect of pre-treatment on lenalidomide-dependent degradation of NanoLuciferase [3]: No obvious reduction

Nc1cccc2c1C(=O)N(C1CCC(=O)NC1=O)C2=O (centres unmarked) [pomalidomide, 4-amino-2-(2,6-dioxopiperidin-3-yl)isoindoline-1,3-dione, reference compound]
degradation of tagged MITF mediated by IMiD [5]: effectively facilitated degradation of tagged MITF | degradation of tagged MITF mediated by IMiD ([5]; listed as Pomalidomide): slightly greater extent than lenalidomide

O=C1CCC(N2C(=O)c3ccccc3C2=O)C(=O)N1 (centres unmarked) [thalidomide, 2-(2,6-dioxopiperidin-3-yl)isoindoline-1,3-dione, reference compound]
degradation of tagged MITF mediated by IMiD [5]: much less effective

IKZF3 136-180 MALEK: residues 236-249 replaced with helix MALEKMALEKMALE, SEQ ID NO: 85
ability of the tag to facilitate lenalidomide-dependent degradation of NanoLuciferase [6]: retained the ability to facilitate lenalidomide-dependent degradation; also recorded: facilitated lenalidomide-induced degradation

IKZF3 136-180 Q147H: variant of IKZF3 136-180 with glutamine at position 147 replaced with histidine, SEQ ID NO: 27
ability of the tag to mediate lenalidomide-dependent degradation of MITF [5]: blocked the ability of IKZF3 136-180 to mediate the lenalidomide-dependent degradation of MITF; also recorded: did not show degradation

IKZF3 136-180 and 236-249 K245R: tag with lysine at position 245 mutated to arginine, SEQ ID NO: 84 (HKRSHTGERPFQCNQCGASFTQKGNLLRHIKLHTGEKPFKCHLCNTASAEARHIRAEMG; source: /note="Description of Unknown: IKZF3 sequence")
ability of the tag to facilitate lenalidomide-dependent degradation of NanoLuciferase [6]: facilitated lenalidomide-induced degradation | ability of the tag to facilitate lenalidomide-dependent degradation of NanoLuciferase ([6]; listed as SEQ ID NO: 84): did not significantly impact the ability of the tag to mediate degradation

IKZF3 136-180 and 236-249 K245S: tag with lysine at position 245 mutated to serine, SEQ ID NO: 100 (HKRSHTGERPFQCNQCGASFTQKGNLLRHIKLHTGEKPFKCHLCNTASAEARHISAEMG; source: /note="Description of Unknown: IKZF3 sequence")
ability of the tag to facilitate lenalidomide-dependent degradation of NanoLuciferase [6]: facilitated lenalidomide-induced degradation | ability of the tag to facilitate lenalidomide-dependent degradation of NanoLuciferase ([6]; listed as SEQ ID NO: 100): did not significantly impact the ability of the tag to mediate degradation

IKZF3 136-180 and 236-249: IKZF3-based degradation tag with amino acid residues 136-180 and 236-249 of human IKZF3, SEQ ID NO: 3 (HKRSHTGERPFQCNQCGASFTQKGNLLRHIKLHTGEKPFKCHLCNTASAEARHIKAEMG; source: /note="Description of Unknown: IKZF3 sequence")
ability of the tag to facilitate lenalidomide-dependent degradation of NanoLuciferase [6]: facilitated lenalidomide-dependent degradation of NanoLuciferase; also recorded: facilitated lenalidomide-induced degradation | ability of the tag to mediate lenalidomide-dependent degradation of MITF [5]: more effective than IKZF3 136-180

IKZF3 136-180: tag with amino acid residues 136-180 of IKZF3, SEQ ID NO: 5
ability of the tag to facilitate lenalidomide-dependent degradation of NanoLuciferase [6]: able to mediate lenalidomide-dependent degradation | ability of the tag to mediate lenalidomide-dependent degradation of MITF [5]: to a lesser degree than IKZF3 136-180 and 236-249

IKZF3 140-170 MALEK: tag comprising the amino acid sequence of SEQ ID NO: 87
ability of the tag to facilitate lenalidomide-dependent degradation of NanoLuciferase [6]: did not mediate lenalidomide-induced degradation; also recorded: did not mediate lenalidomide induced degradation

IKZF3 141-163 MALEK: tag comprising the amino acid sequence of SEQ ID NO: 88 (TGERPFQCNQCGASFTQKGNLLRMALEKMALEKMALE; source: /note="Description of Unknown: IKZF3 sequence")
ability of the tag to facilitate lenalidomide-dependent degradation of NanoLuciferase [6]: did not mediate lenalidomide-induced degradation; also recorded: did not mediate lenalidomide induced degradation

IKZF3 145-155 MALEK: tag comprising the amino acid sequence of SEQ ID NO: 89 (PFQCNQCGASFMALEKMALEKMALE; source: /note="Description of Unknown: IKZF3 sequence")
ability of the tag to facilitate lenalidomide-dependent degradation of NanoLuciferase [6]: did not mediate lenalidomide-induced degradation; also recorded: did not mediate lenalidomide induced degradation

lysine free IKZF3 136-180 and 236-249: variant in which every lysine residue in the tag was mutated to arginine, SEQ ID NO: 4
ability of the tag to mediate lenalidomide-dependent degradation of MITF [5]: did not significantly impact the ability of this tag to mediate lenalidomide-dependent degradation of MITF

B1: construct 765: signal peptide, FurOn, and CAR19 (protein)
chain: RSSLALSLTADQMVSALLDAEPPILYSEYDPTRPFSEASMMGLLTNLADRELVHMINWAKRVPGFVDLALHDQVHLLECAWMEILMIGLVWRSMEHPGKLLFAPNLLLDRNQGKCVEGGVEIFDMLLATSSRFRMMNLQGEEFVCLKSIILLNSGVYTFLSSTLKSLEEKDHIHRVLDKITDTLIHLMAKAGLTLQQQHQRLAQLLLILSHIRHMSSKRMEHLYSMKCKNVVPLSDLLLEMLDAHRLGTGAEDPRPSRKRRSLGDVGEIVMTQSPATLSLSPGERATLSCRASQDISKYLNWYQQKPGQAPRLLIYHTSRLHSGIPARFSGSGSGTDYTLTISSLQPEDFAVYFCQQGNTLPYTFGQGTKLEIKGGGGSGGGGSGGGGSQVQLQESGPGLVKPSETLSLTCTVSGVSLPDYGVSWIRQPPGKGLEWIGVIWGSETTYYQSSLKSRVTISKDNSKNQVSLKLSSVTAADTAVYYCAKHYYYGGSYAMDYWGQGTLVTVSSTTTPAPRPPTPAPTIASQPLSLRPEACRPAAGGAVHTRGLDFACDIYIWAPLAGTCGVLLLSLVITLYCKRGRKKLLYIFKQPFMRPVQTTQEEDGCSCRFPEEEEGGCELRVKFSRSADAPAYQQGQNQLYNELNLGRREEYDVLDKRRGRDPEMGGKPRRKNPQEGLYNELQKDKMAEAYSEIGMKGERRRGKGHDGLYQGLSTATKDTYDALHMQALPPR
effect of lenalidomide on the CAR construct (Western blot) [7]: did not have any impact
